In publication PMC10244169, “Psychedelics promote plasticity by directly binding to BDNF receptor TrkB” (Nature Neuroscience, 2023):

Columns and labels:
TrkB (WT) dimerization = target: T1, TrkB (WT) dimerization (Rattus norvegicus, UniProt Q63604); test: Split-luciferase PCA of TrkB dimerization in N2a cells; format: cell-based; conditions: for Group mean (Mean 2; Control:Vehicle = 100), fig 4f: n=8; for Group mean (Mean 2; Vehicle:vehicle = 100), fig 4d: n=20; for TrkB dimerization time course, group mean (time 0 = 100): TRKB.wt; for TrkB dimerization: WT TrkB, N2a cells, 1 nM to 1 µM; for TrkB dimerization (PCA), group mean (vehicle = 100): WT; for Group mean (Mean 2; Vehicle:Vehicle = 100), fig 4e: n=48
T1 construct: expressed in transfected cells; host or cells: N2a
T1 sequence (Q63604 32-821): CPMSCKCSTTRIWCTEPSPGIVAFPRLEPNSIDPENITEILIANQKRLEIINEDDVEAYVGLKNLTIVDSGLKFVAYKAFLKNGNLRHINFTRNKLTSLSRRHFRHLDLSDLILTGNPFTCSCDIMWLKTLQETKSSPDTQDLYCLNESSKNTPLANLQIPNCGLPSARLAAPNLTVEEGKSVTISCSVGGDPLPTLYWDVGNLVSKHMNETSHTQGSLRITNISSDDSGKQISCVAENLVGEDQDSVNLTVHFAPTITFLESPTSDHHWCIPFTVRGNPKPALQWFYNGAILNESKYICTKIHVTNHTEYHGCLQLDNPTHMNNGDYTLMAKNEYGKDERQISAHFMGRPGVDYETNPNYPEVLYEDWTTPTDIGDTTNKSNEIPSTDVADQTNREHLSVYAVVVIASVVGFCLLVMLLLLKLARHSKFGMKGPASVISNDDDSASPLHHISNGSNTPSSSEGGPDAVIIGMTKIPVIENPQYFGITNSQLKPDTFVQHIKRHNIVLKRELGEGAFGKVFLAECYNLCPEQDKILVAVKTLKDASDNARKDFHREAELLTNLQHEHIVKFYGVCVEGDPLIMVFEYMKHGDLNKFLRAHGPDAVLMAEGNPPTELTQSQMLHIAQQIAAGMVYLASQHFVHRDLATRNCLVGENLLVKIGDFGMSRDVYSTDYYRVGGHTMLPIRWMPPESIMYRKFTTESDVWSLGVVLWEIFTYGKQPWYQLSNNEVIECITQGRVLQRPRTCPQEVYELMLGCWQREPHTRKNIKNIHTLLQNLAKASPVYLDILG
T1 sequence (Q63604 32-821): as above
Procedure: (§1) Ketanserin, M100907 and TRKB.FC were added to the media 10 min before treatment. The PCA method was performed as previously described[11],[75],[76]. Split humanized Gaussia princeps luciferase (hGLuc) was cloned on the C-terminus of the reporter proteins TrkB (WT and Y433F) and lipid raft Fyn. If the reporter proteins that carry complementary halves of the luciferase interact, the enzyme can refold in its functional conformation and, upon addition of its substrate, produce luminescence proportionally to the amount of reporter proteins interacting at a given time. N2a cells were seeded in 96-well plates with opaque walls and transparent bottom (PerkinElmer, ViewPlate 96). Cells were transfected with Lipofectamine 2000 according to the manufacturer’s instructions 24 h post-plating with the PCA pair plasmids: phGLuc(1C)-TrkB(WT) or the mutant phGLuc(1C)-TrkB(Y433F) and phGLuc(2 C)-TrkB(WT) for the dimerization experiments; phGLuc(1C)-lipid raft Fyn and phGLuc(2C)-TrkB(WT) or phGLuc(2C)-TrkB(Y433F) for the lipid raft localization experiments. Forty-eight hours post transfection, cells were treated (40 min, 37 °C) in phenol red-free Dulbecco’s modified Eagle medium without serum. […] The PCA signal was detected with the substrate for the luciferase, native coelenterazine, which was injected into each well directly in the plate reader at a final concentration of 25 mM.

TrkB = target: T2, TrkB (Rattus norvegicus, UniProt Q63604); test: Competition binding with biotinylated R,R-HNK; conditions: ext fig 1g
T2 construct: expressed in transfected cells; host or cells: HEK293T
T2 sequence (Q63604 32-821): as above
Procedure: Binding assays were performed as previously described with minor modifications. […] Samples from mouse embryo (E18) brains were also lysed, vortexed, sonicated and centrifuged for binding assays. Plates were then washed with PBS. […] For the competition binding assays with biotinylated R,R-HNK, the amino-biotinylation of R,R-HNK was performed using a commercial kit (Thermo Scientific, EZ-Link NHS-PEG4 Biotinylation Kit, 21455) and the reaction monitored by MS. A mixture of biotinylated R,R-HNK (10 µM) and unlabeled compounds (1 pM to 10 µM) in PBS was added to the 96-well plates containing the immunoprecipitated TrkB and incubated for 1 h at room temperature. […] Luminescence was determined via streptavidin conjugated with horseradish peroxidase (HRP; Thermo Fisher Scientific, 21126; 1:5,000, 1 h at room temperature) in reaction with the Pierce ECL substrate (Thermo Fisher Scientific, 32106). Luminescence from blank wells that contained all reagents but the sample lysates was used to determine nonspecific binding. To obtain the binding curves, results from binding assays were fitted to the equation of specific binding with Hill slope from GraphPad Prism 9.2. To calculate koff values, results were fitted to the equation of dissociation of one phase exponential decay from GraphPad Prism 9.2.

mice = test: Repeated forced swimming test (rFST); format: in vivo, mouse
Procedure: rFST was conducted in WT and Y433F^+/− mice as described in literature[33],[92] with minor modifications. Briefly, female and male adult mice were exposed to five consecutive pretest sessions (5 min of duration, 24 h apart). […] The animals were submitted to a 5 min test session 7 days after the drug administration. The apparatus consisted of 5 l glass beaker cylinders (19 cm diameter, 20 cm water column at 23 ± 2 °C). The water was changed between each trial, for each animal. After each session, the animals were dried and kept in a warmed cage before returning to their home cages. The pretest and test sessions were recorded and analyzed by a trained observer blind to treatment and genotype.

TrkB(Y433F):Fyn = target: T3, TrkB(Y433F):Fyn (Rattus norvegicus, UniProt Q63604, Y433F); test: PCA of TrkB interaction with lipid raft Fyn in N2a cells; format: cell-based; conditions: Y433F^+/− dimers
T3 construct: expressed in transfected cells; host or cells: N2a
T3 sequence (Q63604 32-821 Y433F): as the sequence (Q63604 32-821) above, with Y402F counted along it
Procedure: as §1, with “[…]. One data point was excluded from Fig. 4b by applying Grubb’s method for outlier detection test, which detected it as a significant outlier.” for “mM.”

TrkB(WT):Fyn = target: T4, TrkB(WT):Fyn (Rattus norvegicus, UniProt Q63604); test: as above; format: cell-based
T4 construct: expressed in transfected cells; host or cells: N2a
T4 sequence (Q63604 32-821): as the sequence (Q63604 32-821) above
Procedure: as §1, with “[…]. One data point was excluded from Fig. 4b by applying Grubb’s method for outlier detection test, which detected it as a significant outlier.” for “mM.”

[1] = 7 d, saline minus LSD, Bonferroni's multiple comparisons test

CCN(CC)C(=O)C1C=C2c3cccc4[nH]cc(c34)CC2N(C)C1 (centres unmarked) [LSD, lysergic acid diethylamide]
potentiation of BDNF effect on TrkB dimerization (TrkB (WT) dimerization; BDNF 0.1 ng ml^−1): potentiates the effects of very low concentrations of BDNF | Group mean (Mean 2; Control:Vehicle = 100), fig 4f (TrkB (WT) dimerization; LSD 1nM with BDNF 0.1ng/ml): 198.9 | Group mean (Mean 2; Vehicle:vehicle = 100), fig 4d (TrkB (WT) dimerization; LSD 1 nM with M100907): 146.3 | Group mean (Mean 2; Control:Vehicle = 100), fig 4f (TrkB (WT) dimerization; LSD 1nM, Vehicle (no BDNF)): 131.4 | Group mean (Mean 2; Vehicle:vehicle = 100), fig 4d (TrkB (WT) dimerization; LSD 1 nM, Vehicle (no M100907)): 129.7 | Group mean (Mean 2; Vehicle:vehicle = 100), fig 4d (TrkB (WT) dimerization; LSD 10 nM with M100907): 148 | Group mean (Mean 2; Vehicle:vehicle = 100), fig 4d (TrkB (WT) dimerization; LSD 10 nM, Vehicle (no M100907)): 146.6 | Group mean (Mean 2; Vehicle:vehicle = 100), fig 4d (TrkB (WT) dimerization; LSD 100 nM with M100907): 153.7 | Group mean (Mean 2; Vehicle:vehicle = 100), fig 4d (TrkB (WT) dimerization; LSD 100 nM, Vehicle (no M100907)): 151.3 | Group mean (Mean 2; Vehicle:vehicle = 100), fig 4d (TrkB (WT) dimerization; LSD 1 µM with M100907): 177.5 | Group mean (Mean 2; Vehicle:vehicle = 100), fig 4d (TrkB (WT) dimerization; LSD 1 µM, Vehicle (no M100907)): 148.9 | TrkB dimerization time course, group mean (time 0 = 100) (TrkB (WT) dimerization; time 15): 195 | TrkB dimerization time course, group mean (time 0 = 100) (TrkB (WT) dimerization; time 60): 250.1 | TrkB dimerization time course, group mean (time 0 = 100) (TrkB (WT) dimerization; time 120): 213 | TrkB dimerization time course, group mean (time 0 = 100) (TrkB (WT) dimerization; time 240): 184.6 | TrkB dimerization time course, group mean (time 0 = 100) (TrkB (WT) dimerization; time 480): 101 | TrkB dimerization (TrkB (WT) dimerization): fast and long-lasting increase in dimerization | TrkB dimerization (PCA), group mean (vehicle = 100) (TrkB (WT) dimerization; 1nM): 126.2 | TrkB dimerization (PCA), group mean (vehicle = 100) (TrkB (WT) dimerization; 10nM): 166.6 | TrkB dimerization (PCA), group mean (vehicle = 100) (TrkB (WT) dimerization; 100nM): 191.5 | TrkB dimerization (PCA), group mean (vehicle = 100) (TrkB (WT) dimerization; 1uM): 201.7 | Group mean (Mean 2; Vehicle:Vehicle = 100), fig 4e (TrkB (WT) dimerization; treatment alone (other factor Vehicle)): 209.8 | Group mean (Mean 2; Vehicle:Vehicle = 100), fig 4e (TrkB (WT) dimerization; with TrkB.FC): 119.5 | K (one phase decay, best-fit) (TrkB): 638387713 | Plateau (one phase decay, best-fit) (TrkB): 36.42 | Span (one phase decay, best-fit) (TrkB): 48.28 | Tau (one phase decay, best-fit) (TrkB): 1.57E-09 | Y0 (one phase decay, best-fit) (TrkB): 84.7 | Mean, figure 7g (repeated forced swimming test) (mice; 7 d, pretest = 100): 81.36 | Mean Diff., figure 7f, WT+SAL vs. WT+LSD (mice; [1]): 34.99 | Mean Diff., figure 7f, Y433F+/-+SAL vs. Y433F+/-+LSD (mice; [1]): 7.08 | Mean Diff. vs. Vehicle, figure 7g (mice; 7 d, vehicle minus treated, Bonferroni's multiple comparisons test): 13.93 | antidepressant-like effect in rFST (mice; WT mice, 7 days after single administration): sustained antidepressant-like effect | Mean, figure 7f (repeated forced swimming test) (mice; WT+LSD, 7 d, pretest = 100): 60.98 | Mean, figure 7f (repeated forced swimming test) (mice; Y433F+/-+LSD, 7 d, pretest = 100): 93.99 | antidepressant-like effect in rFST (mice; Y433F^+/− mice): not Y433F^+/− mice | TrkB interaction with Fyn (TrkB(Y433F):Fyn): this effect is lost | TrkB interaction with Fyn (TrkB(WT):Fyn): increase TrkB interaction with lipid raft-restricted Fyn

COc1cccc([C@H](O)C2CCN(CCc3ccc(F)cc3)CC2)c1OC [M100907]
Group mean (Mean 2; Vehicle:vehicle = 100), fig 4d (TrkB (WT) dimerization; M100907 alone (M100907:vehicle)): 100 | effect of pretreatment on LSD- and BDNF-induced TrkB dimerization (TrkB (WT) dimerization; ketanserin 100 nM, M100907 100 nM or TrkB.FC 200 ng ml^−1, 10 min before): fails to prevent the effects of LSD and BDNF on TrkB dimerization | effect of pretreatment on antidepressant-like effect of LSD in rFST (mice; M100907 0.5 mg kg^−1): did not prevent the antidepressant-like effect of LSD

CN(C)CCc1c[nH]c2cccc(O)c12 [PSI, psilocin]
TrkB dimerization (TrkB (WT) dimerization): fast and long-lasting increase in dimerization | TrkB dimerization (PCA), group mean (vehicle = 100) (TrkB (WT) dimerization; 1nM): 146 | TrkB dimerization (PCA), group mean (vehicle = 100) (TrkB (WT) dimerization; 10nM): 133.7 | TrkB dimerization (PCA), group mean (vehicle = 100) (TrkB (WT) dimerization; 100nM): 150.6 | TrkB dimerization (PCA), group mean (vehicle = 100) (TrkB (WT) dimerization; 1uM): 166.1 | K (one phase decay, best-fit) (TrkB): 89050556 | Plateau (one phase decay, best-fit) (TrkB): 38.6 | Span (one phase decay, best-fit) (TrkB): 50.23 | Tau (one phase decay, best-fit) (TrkB): 1.12E-08 | Y0 (one phase decay, best-fit) (TrkB): 88.84 | TrkB interaction with Fyn (TrkB(Y433F):Fyn): this effect is lost | TrkB interaction with Fyn (TrkB(WT):Fyn): increase TrkB interaction with lipid raft-restricted Fyn
